Experimental data from US20200261391A1, “METHODS OF REDUCING THE RISK OF A CARDIOVASCULAR EVENT IN A STATIN-TREATED SUBJECT BY INCREASING SERUM AND PLASMA EPA AND DPA LEVELS” (Amarin Pharmaceuticals Ireland Limited, priority 2019, published 2020).
Values joined by “and” are separate entries in the source; they are usually repeats but may differ in a detail not shown here. Equal values may be shown once.

Key:
[1] = tested on: patients with elevated triglyceride levels on statin therapy with established cardiovascular disease or at high risk; assay: REDUCE-IT trial: time to first occurrence of adjudicated cardiovascular endpoint events, AMR101 4 g daily vs placebo; format: in vivo, human
Excerpt: The following study, also referred to as the REDUCE-IT clinical trial, was a large cardiovascular (CV) outcome trial designed to assess CV risk reduction benefit of AMR101 treatment (commercially known as VASCEPA®) versus placebo on the 5-point primary composite endpoint: CV death, non-fatal stroke, non-fatal myocardial infarction (MI), coronary revascularizations, or unstable angina requiring hospitalization.
A multi-center, prospective, randomized, double-blind, placebo-controlled, parallel-group study was performed to evaluate the effect of AMR101 (4 g per day) on cardiovascular health and mortality in hypertriglyceridemic patients with cardiovascular disease or at high risk for cardiovascular disease. The intended expanded indication of the study was treatment with AMR101 as an add-on to statin therapy to reduce the risk of cardiovascular events in patients with clinical cardiovascular disease or with multiple risk factors for cardiovascular disease.
The primary objective of this study was, in patients at LDL-C goal while on statin therapy, with established cardiovascular disease (CVD) or at high risk for CVD, and hypertriglyceridemia (e.g., fasting triglycerides(TG)≥200 mg/dL and <500 mg/dL), to evaluate the effect of AMR101 4 g daily on time from randomization to first occurrence of any component of the composite of the following major CV events: CV death; nonfatal MI; (including silent MI; electrocardiograms (ECGs) were performed annually for the detection of silent MIs); nonfatal stroke; coronary revascularization; and unstable angina determined to be caused by myocardial ischemia by invasive/non-invasive testing and requiring emergent hospitalization.
The key secondary objective of this study was to evaluate the effect of AMR101 4 g daily on the time from randomization to the first occurrence of the composite of following major CV events: CV death, nonfatal MI (including silent MI), and nonfatal stroke.
Other secondary objectives for this study were to evaluate the effect of therapy on time from randomization to the first occurrence of the following individual or composite endpoints: composite of CV death or nonfatal MI (including silent MI); fatal or nonfatal MI (including silent MI); non-elective coronary revascularization represented as the composite of emergent or urgent classifications; CV death; unstable angina determined to be caused by myocardial ischemia by invasive/non-invasive testing and requiring emergent hospitalization; fatal or nonfatal stroke; composite of total mortality, nonfatal MI (including silent MI), or nonfatal stroke; and total mortality.
Primary Efficacy Endpoint: The primary efficacy endpoint was time from randomization to the first occurrence of the composite of the following clinical events: CV death; nonfatal MI (including silent MI; ECGs were performed annually for the detection of silent MIs); nonfatal stroke; coronary revascularization; and unstable angina determined to be caused by myocardial ischemia by invasive/non-invasive testing and requiring emergent hospitalization. The first occurrence of any of these major adverse vascular events during the follow-up period of the study were included in the incidence.
Secondary Efficacy Endpoints: The key secondary efficacy endpoint was the time from randomization to the first occurrence of the composite of CV death, nonfatal MI (including silent MI), or nonfatal stroke. […]

[2] = tested on: patients with elevated triglyceride levels on statin therapy; assay: REDUCE-IT endpoints by pooled (icosapent ethyl and placebo) EPA blood level tertile; format: in vivo, human; details: icosapent ethyl and placebo pooled
Excerpt: The objective of this study is to assess the effects of administering icosapent ethyl at 4 g per day to patients from the REDUCE-IT trial of Example 1. More specifically, patients from the REDUCE-IT trial of Example 1 were stratified by their EPA levels into one of three tertiles. Following stratification, the objective was to determine if the RRR differs between patients having EPA levels in the three different tertiles. For the data collected as shown in Tables 38-43 and FIGS. 52, 53, and 56-59, the tertiles were established based on data collected from subjects at 1 year, 2 years, and last visit following icosapent ethyl administration compared to placebo. Data are presented as an average of 1 year, 2 year, […], and end of study values. The data was further analyzed use both pooled and unpooled statistically methods.
(0.84 for lowest vs. placebo, 0.72 for middle vs. placebo, and 0.65 for highest vs. placebo).

[3] = adjudicated tertiary endpoint, listed as AMR101
[4] = adjudicated tertiary endpoint, listed as Icosapent Ethyl
[5] = vs placebo, median follow up 4.9 years
[6] = vs placebo, time to first event
[7] = vs placebo, time to first occurrence
[8] = highest >118.1 μg/mL vs lowest ≤31.305 μg/mL
[9] = highest >118.1 μg/mL vs middle >31.305 to ≤118.1 μg/mL
[10] = middle >31.305 to ≤118.1 μg/mL vs lowest ≤31.305 μg/mL

With `CC/C=C\C/C=C\C/C=C\C/C=C\C/C=C\CCCC(=O)OCC` [icosapent ethyl, eicosapentaenoic acid ethyl ester] the “Amputation for PVD, patients with event” value ([1]; adjudicated tertiary endpoint) was “(0.5%)”, the “Cardiac Arrest, patients with event” value ([1]; adjudicated tertiary endpoint) was “(0.5%)” and the “Cardiac Arrhythmias Requiring Hospitalization of ≥24 Hours, patients with event” value ([1]; adjudicated tertiary endpoint) was “(4.6%)”. For the same molecule, the “Carotid Revascularization, patients with event” value ([1]; adjudicated tertiary endpoint) was “(0.8%)”, the “Coronary Revascularization, patients with event” value ([1]; adjudicated tertiary endpoint) was “(9.2%)” and the “Elective Revascularization, patients with event” value ([1]; adjudicated tertiary endpoint) was “(4.7%)”. The “Emergent Revascularization, patients with event” value ([1]; adjudicated tertiary endpoint) was “(1.0%)”, the “Ischemic Stroke, patients with event” value ([1]; adjudicated tertiary endpoint) was “(2.0%)” and the “New Heart Failure Requiring Hospitalization, patients with event” value ([1]; adjudicated tertiary endpoint) was “(3.4%)”. For the same molecule, the “Primary Endpoint in Patients with Diabetes at Baseline, patients with event” value ([1]; adjudicated tertiary endpoint) was “(18.1%)”, the “Salvage Revascularization, patients with event” value ([1]; adjudicated tertiary endpoint) was “(0.0%)” and the “Sudden Cardiac Death, patients with event” value ([1]; adjudicated tertiary endpoint) was 1.5%. For the same molecule, the “Transient Ischemic Attack, patients with event” value ([1]; adjudicated tertiary endpoint) was “(1.6%)”, the “Urgent Revascularization, patients with event” value ([1]; adjudicated tertiary endpoint) was “(4.4%)” and the “Hemorrhagic Stroke, patients with event” value [1, 3] was 0.3%. The “New Heart Failure, patients with event” value [1, 3] was 4.1%, the “Hemorrhagic Stroke, patients with event” value [1, 4] was “(0.3%)” and the “New Heart Failure, patients with event” value [1, 4] was “(4.1%)”. The “Sudden Cardiac Death, patients with event” value [1, 4] was “(1.5%)”, the “key secondary composite endpoint, patients with event” value ([1]; first occurrence of CV death, nonfatal MI or nonfatal stroke, median follow up 4.9 years) was 11.2% and the “primary composite endpoint, patients with event” value ([1]; first occurrence of CV death, nonfatal MI, nonfatal stroke, coronary revascularization or unstable angina, median follow up 4.9 years) was 17.2%. For the same molecule, the “cardiovascular death, patients with event” value ([1]; in vivo) was 4.3%, the “total mortality, patients with event” value ([1]; in vivo) was 6.7% and the “key secondary composite endpoint, number needed to treat” value ([1]; median follow up 4.9 years) was 28. The “primary composite endpoint, number needed to treat” value ([1]; median follow up 4.9 years) was 21, the “New Onset of Diabetes, patients with event” value ([1]; patients with diabetes at baseline excluded) was “(3.8%)” and the “Amputation for PVD, HR” value ([1]; vs placebo) was 1.04. For the same molecule, the “Cardiac Arrest, HR” value ([1]; vs placebo) was 0.52, the “Cardiac Arrhythmias Requiring Hospitalization of ≥24 Hours, HR” value ([1]; vs placebo) was 1.21 and the “Carotid Revascularization, HR” value ([1]; vs placebo) was 1.18. For the same molecule, the “Coronary Revascularization, HR” value ([1]; vs placebo) was 0.66, the “Elective Revascularization, HR” value ([1]; vs placebo) was 0.68 and the “Emergent Revascularization, HR” value ([1]; vs placebo) was 0.62. For the same molecule, the “Hemorrhagic Stroke, HR” value ([1]; vs placebo) was 1.28, the “Ischemic Stroke, HR” value ([1]; vs placebo) was 0.64 and the “New Heart Failure Requiring Hospitalization, HR” value ([1]; vs placebo) was 0.97. For the same molecule, the “New Heart Failure, HR” value ([1]; vs placebo) was 0.95, the “Primary Endpoint in Patients with Diabetes at Baseline, HR” value ([1]; vs placebo) was 0.77 and the “Salvage Revascularization, HR” value ([1]; vs placebo) was 0.00. The “Sudden Cardiac Death, HR” value ([1]; vs placebo) was 0.69, the “Transient Ischemic Attack, HR” value ([1]; vs placebo) was 1.32 and the “Urgent Revascularization, HR” value ([1]; vs placebo) was 0.66. The “cardiac arrest, reduction” value ([1]; vs placebo) was 48%, the “cardiovascular death, HR” value ([1]; vs placebo) was 0.80 and the “cardiovascular death, relative risk reduction” value ([1]; vs placebo) was 20%. For the same molecule, the “composite of cardiovascular death or nonfatal myocardial infarction, RRR” value ([1]; vs placebo) was 25%, the “composite of total mortality, nonfatal myocardial infarction, or nonfatal stroke, RRR” value ([1]; vs placebo) was 23% and the “fatal or nonfatal myocardial infarction, RRR” value ([1]; vs placebo) was 31%. The “fatal or nonfatal stroke, RRR” value ([1]; vs placebo) was 28%, the “hospitalization for unstable angina, RRR” value ([1]; vs placebo) was 32% and the “myocardial infarction, HR” value ([1]; vs placebo) was 0.69. For the same molecule, the “primary endpoint risk reduction, post hoc analysis excluding patients with diarrhea” value ([1]; vs placebo) was 25%, the “stroke, HR” value ([1]; vs placebo) was 0.72 and the “sudden cardiac death, reduction” value ([1]; vs placebo) was 31%. The “total mortality, HR” value ([1]; vs placebo) was 0.87, the “total mortality, relative risk reduction” value ([1]; vs placebo) was 13% and the “urgent or emergent revascularization, RRR” value ([1]; vs placebo) was 35%. For the same molecule, the “key secondary composite endpoint, absolute risk reduction” value [1, 5] was 3.6%, the “primary composite endpoint, absolute risk reduction” value [1, 5] was 4.8% and the “New Onset of Diabetes, HR” value ([1]; vs placebo, patients with diabetes at baseline excluded) was 1.04. For the same molecule, the “key secondary composite endpoint, relative risk reduction” value [1, 6] was 26% and 26.5%, the “primary composite endpoint, relative risk reduction” value [1, 6] was 25% and 24.8% and the “key secondary composite endpoint, HR” value [1, 7] was 0.74. The “primary composite endpoint, HR” value [1, 7] was 0.75, the “HR (95% CI), Key Secondary Endpoint, pooled EPA tertiles, Highest vs Lowest” value [2, 8] was 0.61 (0.51, 0.71) and the “HR (95% CI), Primary Endpoint, pooled EPA tertiles, Highest vs Lowest” value [2, 8] was 0.65 (0.57, 0.74). The “HR (95% CI), Key Secondary Endpoint, pooled EPA tertiles, Highest vs Middle” value [2, 9] was 0.78 (0.65, 0.92), the “HR (95% CI), Primary Endpoint, pooled EPA tertiles, Highest vs Middle” value [2, 9] was 0.80 (0.70, 0.92) and the “HR (95% CI), Key Secondary Endpoint, pooled EPA tertiles, Middle vs Lowest” value [2, 10] was 0.78 (0.67, 0.91). The “HR (95% CI), Primary Endpoint, pooled EPA tertiles, Middle vs Lowest” value [2, 10] was 0.81 (0.71, 0.92).
